The record followed here is patent publication US20150191469A1, “COMPOUNDS AND METHODS FOR TREATING HIV” (priority 2012, published 2015).

pIC50: −log10 of the molar value.

The experiment relates to HIV. Briefly: MT4 assay: antiviral HIV activity (cell protection, cell titer glo readout at 96 hours). The format is cell-based. The conditions noted are these: Human immunodeficiency virus 1, MT4, 96 h, MT4 cells, cell titer glo readout at 96 hours, 10 point dose response; read-out: HIV MT4 Assay IC50. In outline:
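MT-4 cells infected with HIV, with inhibition readout by CellTiter-Glo luminescence at 96 h relative to no-compound control. Cytotoxicity measured in parallel under the same conditions. IC50 from a 10-point, 3-4-fold dilution series spanning >1000-fold, fitted with a four-parameter logistic equation.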
In general terms: In ATP-based viability assays light output follows the ATP content of the culture.
The term pIC50 denotes the negative decadic logarithm of the IC50, by convention in mol/L. As to `Cc1nc2c(cc(-c3nnc(N4CC5CN(C6COC6)CC5C4)o3)n2C)c(-c2cc(F)c3c(c2C)CCCO3)c1[C@H](OC(C)(C)C)C(=O)O` (stereo partly drawn) [Example 309], the pIC50 is 7.34.
Regarding `Cc1nc2c(cc(-c3nnc(N4CCOCC4)o3)n2C)c(-c2cc(F)c3c(c2C)CCCO3)c1[C@H](OC(C)(C)C)C(=O)O` [Example 310], the pIC50 was 7.81.
Consider `Cc1nc2c(cc(-c3nnc(N4CCCC4)o3)n2C)c(-c2cc(F)c3c(c2C)CCCO3)c1[C@H](OC(C)(C)C)C(=O)O` [Example 311], for which the pIC50 was 8.35.
For the molecule `Cc1nc2c(cc(-c3nnc(N4CCN(C)CC4)o3)n2C)c(-c2cc(F)c3c(c2C)CCCO3)c1[C@H](OC(C)(C)C)C(=O)O` [Example 312], the pIC50 is 7.70.
With `Cc1nc2c(cc(-c3nnc(CN4CCCCC4)o3)n2C)c(-c2cc(F)c3c(c2C)CCCO3)c1[C@H](OC(C)(C)C)C(=O)O` [Example 313], the pIC50 was 8.08.
On to `Cc1nc2c(cc(-c3nnc(N4CCC(F)(F)CC4)o3)n2C)c(-c2cc(F)c3c(c2C)CCCO3)c1[C@H](OC(C)(C)C)C(=O)O` [Example 314], for which the pIC50 was 8.12.
As for `Cc1nc2c(cc(-c3nnc(N4CCN(C5COC5)CC4)o3)n2C)c(-c2cc(F)c3c(c2C)CCCO3)c1[C@H](OC(C)(C)C)C(=O)O` [Example 315], the pIC50 was 7.39.
The same measure for `Cc1nc2c(cc(-c3nnc(N4CCS(=O)(=O)CC4)o3)n2C)c(-c2cc(F)c3c(c2C)CCCO3)c1[C@H](OC(C)(C)C)C(=O)O` [Example 316]: 6.25.
Regarding `Cc1nc2c(cc(-c3nnc(N4CCC(N5CCCCC5)CC4)o3)n2C)c(-c2cc(F)c3c(c2C)CCCO3)c1[C@H](OC(C)(C)C)C(=O)O` [Example 317], the pIC50 was 6.93.
For `Cc1nc2c(cc(-c3nnc(N4CCC(N5CCOCC5)CC4)o3)n2C)c(-c2cc(F)c3c(c2C)CCCO3)c1[C@H](OC(C)(C)C)C(=O)O` [Example 318], the pIC50 is 7.85.
For the molecule `Cc1nc2c(cc(-c3nnc(N4CCN(S(=O)(=O)N5CCCCC5)CC4)o3)n2C)c(-c2cc(F)c3c(c2C)CCCO3)c1[C@H](OC(C)(C)C)C(=O)O` [Example 319], the pIC50 is 8.31.
With `Cc1nc2c(cc(-c3nnc(N4CCC(N5CCS(=O)(=O)CC5)CC4)o3)n2C)c(-c2cc(F)c3c(c2C)CCCO3)c1[C@H](OC(C)(C)C)C(=O)O` [Example 320], the negative logarithm of the IC50 (pIC50) was 6.42.
For the molecule `Cc1nc2c(cc(-c3nnc(N4CCC5(CCCCC5)CC4)o3)n2C)c(-c2cc(F)c3c(c2C)CCCO3)c1[C@H](OC(C)(C)C)C(=O)O` [Example 321], the pIC50 is 7.87.
In the case of `Cc1nc2c(cc(-c3nnc(N4CCN(CC5CCOCC5)CC4)o3)n2C)c(-c2cc(F)c3c(c2C)CCCO3)c1[C@H](OC(C)(C)C)C(=O)O` [Example 322], the pIC50 is 8.34.
Turning to `Cc1nc2c(cc(-c3nnc(N4CCC(OC(C)C)CC4)o3)n2C)c(-c2cc(F)c3c(c2C)CCCO3)c1[C@H](OC(C)(C)C)C(=O)O` [Example 323], the pIC50 is 8.28.
Consider `Cc1nc2c(cc(-c3nnc(N4CCC[C@@H]4C)o3)n2C)c(-c2cc(F)c3c(c2C)CCCO3)c1[C@H](OC(C)(C)C)C(=O)O` [Example 324], for which the pIC50 was 8.40.
With `Cc1nc2c(cc(-c3nnc(N4CCC4)o3)n2C)c(-c2cc(F)c3c(c2C)CCCO3)c1[C@H](OC(C)(C)C)C(=O)O` [Example 325], the pIC50 is 7.87.
For `Cc1nc2c(cc(-c3nnc(N4CCN5CCC[C@@H]5C4)o3)n2C)c(-c2cc(F)c3c(c2C)CCCO3)c1[C@H](OC(C)(C)C)C(=O)O` [Example 326], the pIC50 is 8.42.
Take `Cc1nc2c(cc(-c3nnc(N4CCC(n5cccn5)CC4)o3)n2C)c(-c2cc(F)c3c(c2C)CCCO3)c1[C@H](OC(C)(C)C)C(=O)O` [Example 327]: the pIC50 is 8.03.
On to `Cc1nc2c(cc(-c3nnc(N4CCN(C5CCOCC5)C[C@H]4C)o3)n2C)c(-c2cc(F)c3c(c2C)CCCO3)c1[C@H](OC(C)(C)C)C(=O)O` [Example 328], for which the pIC50 was 8.38.
As to `Cc1nc2c(cc(-c3nnc(N4CCOC[C@@H]4C)o3)n2C)c(-c2cc(F)c3c(c2C)CCCO3)c1[C@H](OC(C)(C)C)C(=O)O` [Example 329], the negative-log IC50 (pIC50) was 7.87.
Take `COC[C@H]1CCCN1c1nnc(-c2cc3c(-c4cc(F)c5c(c4C)CCCO5)c([C@H](OC(C)(C)C)C(=O)O)c(C)nc3n2C)o1` [Example 330]: the negative-log IC50 (pIC50) is 7.89.
Turning to `Cc1nc2c(cc(-c3nnc(N4CC[C@@H](F)C4)o3)n2C)c(-c2cc(F)c3c(c2C)CCCO3)c1[C@H](OC(C)(C)C)C(=O)O` [Example 331], the pIC50 was 8.37.
The same measure for `Cc1nc2c(cc(-c3nnc(N4CC[C@H](N(C)C)C4)o3)n2C)c(-c2cc(F)c3c(c2C)CCCO3)c1[C@H](OC(C)(C)C)C(=O)O` [Example 332]: 7.62.
Turning to `Cc1nc2c(cc(-c3nnc(N4CCN5CCOC[C@@H]5C4)o3)n2C)c(-c2cc(F)c3c(c2C)CCCO3)c1[C@H](OC(C)(C)C)C(=O)O` [Example 333], the pIC50 is 7.78.
As for `Cc1nc2c(cc(-c3nnc(N4CCOC[C@H]4C)o3)n2C)c(-c2cc(F)c3c(c2C)CCCO3)c1[C@H](OC(C)(C)C)C(=O)O` [Example 334], the pIC50 is 7.98.
As to `Cc1nc2c(cc(-c3nnc(N4CCN(C5CCOCC5)[C@@H](C)C4)o3)n2C)c(-c2cc(F)c3c(c2C)CCCO3)c1[C@H](OC(C)(C)C)C(=O)O` [Example 335], the pIC50 was 8.00.
For `Cc1nc2c(cc(-c3nnc(N4CCN(C5CC5)CC4)o3)n2C)c(-c2cc(F)c3c(c2C)CCCO3)c1[C@H](OC(C)(C)C)C(=O)O` [Example 336], the pIC50 was 8.35.
The value for `Cc1nc2c(cc(-c3nnc(N4CCN(CC5CC5)CC4)o3)n2C)c(-c2cc(F)c3c(c2C)CCCO3)c1[C@H](OC(C)(C)C)C(=O)O` [Example 337] was 8.34; that for `COCC1CCCN1C1CCN(c2nnc(-c3cc4c(-c5cc(F)c6c(c5C)CCCO6)c([C@H](OC(C)(C)C)C(=O)O)c(C)nc4n3C)o2)CC1` (stereo partly drawn) [Example 339] was 7.54.
For the molecule `Cc1nc2c(cc(-c3nnc(N4CCN(CCN5CCOCC5)CC4)o3)n2C)c(-c2cc(F)c3c(c2C)CCCO3)c1[C@H](OC(C)(C)C)C(=O)O` [Example 340], the pIC50 was 7.36.
In the case of `Cc1nc2c(cc(-c3nnc(NCCN4CCN(C)CC4)o3)n2C)c(-c2cc(F)c3c(c2C)CCCO3)c1[C@H](OC(C)(C)C)C(=O)O` [Example 341], the negative-log IC50 (pIC50) is 5.90.
Regarding `Cc1nc2c(cc(-c3nnc(N4CCN(C(C)C)CC4)o3)n2C)c(-c2cc(F)c3c(c2C)CCCO3)c1[C@H](OC(C)(C)C)C(=O)O` [Example 342], the pIC50 was 8.27.
On to `Cc1nc2c(cc(-c3nnc(N(C)CCN4CCOCC4)o3)n2C)c(-c2cc(F)c3c(c2C)CCCO3)c1[C@H](OC(C)(C)C)C(=O)O` [Example 343], for which the pIC50 was 7.97.
Consider `Cc1nc2c(cc(-c3nnc(N4CCC(N5CCCC5)CC4)o3)n2C)c(-c2cc(F)c3c(c2C)CCCO3)c1[C@H](OC(C)(C)C)C(=O)O` [Example 344], for which the pIC50 was 6.89.
Take `Cc1nc2c(cc(-c3nnc(N4CCCCC4)o3)n2C)c(-c2cc(F)c3c(c2C)CCCO3)c1[C@H](OC(C)(C)C)C(=O)O` [Example 345]: the pIC50 is 8.57.
For the molecule `Cc1nc2c(cc(-c3nnc(N4CCC(F)CC4)o3)n2C)c(-c2cc(F)c3c(c2C)CCCO3)c1[C@H](OC(C)(C)C)C(=O)O` [Example 346], the pIC50 was 8.57.
`Cc1nc2c(cc(-c3nnc(N4CCN(C5CCOCC5)[C@H](C)C4)o3)n2C)c(-c2cc(F)c3c(c2C)CCCO3)c1[C@H](OC(C)(C)C)C(=O)O` [Example 347]: the pIC50 is 8.20.
On to `Cc1nc2c(cc(-c3nnc(N4CCN5CCC[C@H]5C4)o3)n2C)c(-c2cc(F)c3c(c2C)CCCO3)c1[C@H](OC(C)(C)C)C(=O)O` [Example 348], for which the pIC50 is 8.51.
`COC[C@@H]1CCCN1c1nnc(-c2cc3c(-c4cc(F)c5c(c4C)CCCO5)c([C@H](OC(C)(C)C)C(=O)O)c(C)nc3n2C)o1` [Example 349]: the pIC50 was 8.52.
`Cc1nc2c(cc(-c3nnc(N4CCCOCC4)o3)n2C)c(-c2cc(F)c3c(c2C)CCCO3)c1[C@H](OC(C)(C)C)C(=O)O` [Example 350]: the pIC50 is 7.92.
Take `Cc1nc2c(cc(-c3nnc(N4C[C@H](C)O[C@@H](C)C4)o3)n2C)c(-c2cc(F)c3c(c2C)CCCO3)c1[C@H](OC(C)(C)C)C(=O)O` [Example 351]: the pIC50 was 8.70.
The value for `Cc1nc2c(cc(-c3nnc(N4CCOC(C)(C)C4)o3)n2C)c(-c2cc(F)c3c(c2C)CCCO3)c1[C@H](OC(C)(C)C)C(=O)O` [Example 352] was 8.26; that for `Cc1nc2c(cc(-c3nnc(N4CC5CCC(C4)O5)o3)n2C)c(-c2cc(F)c3c(c2C)CCCO3)c1[C@H](OC(C)(C)C)C(=O)O` [Example 353] was 8.15.
As for `Cc1nc2c(cc(-c3cc(N4CCN(C5CCOCC5)CC4)ncn3)n2C)c(-c2cc(F)c3c(c2C)CCCO3)c1[C@H](OC(C)(C)C)C(=O)O` [Example 359], the pIC50 was 8.39.
With `Cc1nc2c(cc(-c3cncc(N4CCN(C5CCOCC5)CC4)n3)n2C)c(-c2cc(F)c3c(c2C)CCCO3)c1[C@H](OC(C)(C)C)C(=O)O` [Example 360], the pIC50 is 7.51.
The same measure for `Cc1nc2c(cc(-c3cncc(N4CCN(C5CCOCC5)CC4)c3)n2C)c(-c2cc(F)c3c(c2C)CCCO3)c1[C@H](OC(C)(C)C)C(=O)O` [Example 361]: 7.83; for `Cc1nc2c(cc(-c3cc(N4CCN(C5CCOCC5)CC4)ccn3)n2C)c(-c2cc(F)c3c(c2C)CCCO3)c1[C@H](OC(C)(C)C)C(=O)O` [Example 362]: 8.24.
For `Cc1nc2c(cc(-c3ccnc(N4CCN(C5CCOCC5)CC4)n3)n2C)c(-c2cc(F)c3c(c2C)CCCO3)c1[C@H](OC(C)(C)C)C(=O)O` [Example 363], the pIC50 is 8.00.
As to `Cc1nc2c(cc(-c3cc(NCCN4CCOCC4)ncn3)n2C)c(-c2cc(F)c3c(c2C)CCCO3)c1[C@H](OC(C)(C)C)C(=O)O` [Example 365], the negative-log IC50 (pIC50) was 7.06.
On to `Cc1nc2c(cc(-c3cc(NCCC(C)(C)C)ncn3)n2C)c(-c2cc(F)c3c(c2C)CCCO3)c1[C@H](OC(C)(C)C)C(=O)O` [Example 366], for which the pIC50 is 7.82.
